The target of one data set is T1, human D1R (Homo sapiens, UniProt P21728).
T1 construct: endogenously expressed human D1R in the SK-N-MC cell line (ATCC); host or cells: SK-N-MC human neuroblastoma cells
Nature of the data set: potentiator-mode cAMP assay (HTRF) in SK-N-MC neuroblastoma cells endogenously expressing human D1R. As to conditions: for EC50: potency of the compound at the DA EC70 concentration. The data set is classed as cell-based. How it is done:
An in-house chemical library of 250 compounds was screened using an in vitro assay measuring accumulation of cAMP in a human neuroblastoma SK-N-MC cell line stably expressing physiological levels of the D1R but not the D5R.[41] To assess allosteric modulation of the D1R, cells were treated with a fixed concentration of the test compounds (10 μM) for 15 min and then co-incubated with increasing concentrations of the endogenous agonist DA. The cAMP concentration was quantified by homogeneous time-resolved fluorescence energy transfer (HTRF) and the effect of each compound on the DA concentration–response curve was measured.
The PAM efficacy was measured as the percentage of increase over DA EC70 and the potency as the EC50 observed in the concentration–response curve.
Functional studies at human D1 and D2 receptors were carried out in endogenously expressed human D1R in the SK-N-MC cell line (ATCC), and recombinant human D2R stably transfected in an in-house CHO cell line. Cells were thawed and seeded into a black 96-well plate (1 × 10^4 cells/well for SK-N-MC cell line, 5 × 10^3 cells/well for CHO cell line) in Opti-MEM containing 500 μM IBMX (3-isobutyl-1-methylxanthine).

For a further data set, the target named is T2, human D5R (Homo sapiens, UniProt P21918).
T2 construct: host or cells: cells supplied with the cAMP Hunter eXpress DRD5 assay kit
T2 sequence (P21918 whole entry): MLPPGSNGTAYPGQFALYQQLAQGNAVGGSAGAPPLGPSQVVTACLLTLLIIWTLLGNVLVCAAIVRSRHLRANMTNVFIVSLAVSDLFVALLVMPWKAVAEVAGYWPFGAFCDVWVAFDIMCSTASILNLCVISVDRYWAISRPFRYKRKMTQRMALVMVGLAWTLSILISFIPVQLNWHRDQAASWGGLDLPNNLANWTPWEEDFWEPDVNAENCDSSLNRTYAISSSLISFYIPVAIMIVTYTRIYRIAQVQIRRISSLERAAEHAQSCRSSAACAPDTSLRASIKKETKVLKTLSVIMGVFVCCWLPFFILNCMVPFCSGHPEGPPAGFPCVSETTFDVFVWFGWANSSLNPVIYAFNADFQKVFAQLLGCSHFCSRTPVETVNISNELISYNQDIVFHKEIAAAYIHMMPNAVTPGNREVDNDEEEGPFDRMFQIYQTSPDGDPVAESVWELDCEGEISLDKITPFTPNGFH
Nature of the data set: cAMP Hunter eXpress DRD5 assay at human D5R. Type of data set: cell-based. As to conditions: 10 μM compound. The method, then:
Functional studies at human D5R receptors were carried out in human D5R, using a cAMP Hunter eXpress DRD5 assay kit from DiscoverX. Briefly, cells were plated and maintained for 24 h at 37 °C in a 5% CO2 atmosphere in the cell plating reagent provided in the kit. After this time, test compounds were added to the cells and incubated for 15 min at 37 °C, followed by treatment with dopamine and incubation for an additional 30 min at 37 °C. Cells were then treated with the cAMP working detection solution provided with the kit for 1 h, and then cAMP solution A was added and incubated for 3 h at rt. cAMP formation was measured by luminescence detection (integration time = 500 ms) in a Tecan M1000 Genius Pro reader. Data were normalized to dopamine maximum effect and fitted to a 4-parameter logistic equation using Prism v2.1 software (GraphPad Inc).

Data set [1] is described as follows: solubility by nephelometry. Type of data set: physicochemical. Particulars: PBS buffer with 1% DMSO; maximum solubility by nephelometry. The method, then:
Prior to use, the pre-coated PAMPA plate system was warmed to rt for 30 min and 300 μL of 200 μM solution of tested compound in 2% DMSO in PBS were added to the wells in the receiver (donor) plate.
Then, 200 μL of PBS were added to the wells in the filter (acceptor) plate. The filter plate was placed on the receiver plate by slowly lowering the pre-coated PAMPA plate until it sits on the receiver plate. The assembly was incubated at rt for 5 h, and then buffer samples were collected carefully from each plate. […]
CD(t) = compound concentration (μM) in donor well at time t, and Ceq = […]
Solubility. […] The solutions were i ncubated for 2 h at 37 °C and read in a NEPHELOstar Plus instrument (BMG LABTECH). […]
Fluorescence per well was measured using a fluorescence plate reader (Tecan Infinite M1000 pro) and percentage of inhibition was calculated. hERG ion channel inhibition. […] Cell s were maintained at 37 °C in a 5% CO2 atmosphere for 24 h and at 30 °C in a 5% CO 2 atmosphere for 48 h. hERG activity was measured by using the FluxorTM Potassium Ion Chanel Assay Kit (Thermo Fisher F10016). […] After this time, 5 µL of stimulus buffer was added to each well and fluorescence was read (λ ex = 490 nm, λem = 525 nm) every second after the establishment of a baseline line using an imaging plate reader system (FDSS7000EX, Hamamatsu®). […]

≈ marks a conversion by molar mass, not a printed value.

A word on the EC50: it is the concentration giving half of the maximal effect. By solubility is commonly meant how much of the substance goes into solution per volume. Low values mean little dissolved substance, high ones much dissolved substance.

T1 sequence (P21728 whole entry): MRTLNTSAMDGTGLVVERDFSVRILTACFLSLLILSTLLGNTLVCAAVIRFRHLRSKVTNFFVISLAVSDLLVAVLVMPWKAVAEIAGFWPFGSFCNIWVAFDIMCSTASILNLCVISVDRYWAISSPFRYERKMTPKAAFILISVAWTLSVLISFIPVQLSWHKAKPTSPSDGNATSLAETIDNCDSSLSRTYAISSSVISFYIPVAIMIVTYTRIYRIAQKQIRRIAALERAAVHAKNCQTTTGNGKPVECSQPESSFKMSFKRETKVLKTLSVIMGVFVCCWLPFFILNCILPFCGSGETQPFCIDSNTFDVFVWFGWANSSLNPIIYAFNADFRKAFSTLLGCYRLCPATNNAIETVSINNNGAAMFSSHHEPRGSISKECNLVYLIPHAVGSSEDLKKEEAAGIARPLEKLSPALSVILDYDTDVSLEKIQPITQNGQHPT

Regarding `O=Cc1ccc(-c2ccccc2OCF)cc1` [Compound 3, 2′-(Fluoromethoxy)[1,1′-biphenyl]-4-carbaldehyde], the EC50 at human D1R came to 12.7 ± 2.4 µM. Besides, the “enhancement of DA Emax at human D5 receptor” value on human D5R is “did not enhance DA Emax”. Also, the concentration in solution in data set [1] (solubility at 2 h) was 15 µM (≈ 3.45 µg/mL).
As to `CS(=N)(=O)c1ccc(-c2ccccc2OCF)cc1` (stereo not shown) [Compound 26, 2-(Fluoromethoxy)-4′-(S-methanesulfonimidoyl)-1,1′-biphenyl], on human D1R (SK-N-MC, concentration–response curve of the compound over DA EC70, read-out: % maximum increase (efficacy over DA EC70)), the Emax was determined as 45 ± 7%. On human D1R, the EC50 came to 0.06 ± 0.01 µM. The “enhancement of DA Emax at human D5 receptor” value at human D5R is “subtype selectivity”. In data set [1], this compound had a solubility at 2 h of 50 µM (≈ 14 µg/mL).

The values are drawn from paper PMC9511493, “2-(Fluoromethoxy)-4′-(S-methanesulfonimidoyl)-1,1′-biphenyl (UCM-1306), an Orally Bioavailable Positive Allosteric Modulator of the Human Dopamine D1 Receptor for Parkinson’s Disease” (Journal of Medicinal Chemistry, 2022).
